This series can be described thus: Diffusive release of Rose Bengal through sintered electrospun polymer capsule wall in PBS. The class given is physicochemical. The source says: To create a generic advantage that dramatically enhances the long-term drug delivery properties of electrospun scaffolds beyond those currently available via electrospinning alone. A little-known aspect of materials processing is that the shrinkage of high surface area polymers (e.g., in electrospun or electrosprayed form) can be used to provide higher density polymers. In the context of electrospun tissue engineering scaffolds, this phenomenon can be used to create relatively dense material from polymer compositions that would be difficult—if not impossible—to create via extrusion. The relatively dense material then creates a solid barrier through which diffusion of the internally-held drug can occur. The simplest version of this process involves creating a hollow tube via electrospinning (FIG. 1), sintering it to full or nearly-full density (thus eliminating open porosity, see FIG. 2), and then inserting the drug of interest contained with the appropriate solvent. Once this is complete, the ends of the tube can be heat-sealed (FIG. 3) using commonly available, purpose-built equipment designed and manufactured for the purpose of heat-sealing plastics of nearly any chemical composition. […]

This is an account of results in patent US20250152781A1, “TISSUE ENGINEERING AND DRUG DELIVERY DEVICE” (Ohio State Innovation Foundation, priority 2022, published 2025).

`O=C([O-])c1c(Cl)c(Cl)c(Cl)c(Cl)c1-c1c2cc(I)c(=O)c(I)c-2oc2c(I)c([O-])c(I)cc12.[Na+].[Na+]` [Rose Bengal]: the “drug release rate of Rose Bengal through 95% PCL-5% PET wall” value (95% PCL-5% polyethylene terephthalate wall formed by electrospinning then sintering to full density, after 30+ days of release (FIG. 5)) is reported as “above 10 μg/day”. Further, the “release rate of Rose Bengal through PCL capsule wall” value (PCL wall formed by electrospinning then sintering to full density, after 120 days of exposure to 37° C. phosphate-buffered saline (FIG. 4)) lay within 9 to 10 µg/day.
